Structures can show the parent of a compound that is named as a salt.
Legend:
[1] = system: 2 kidney, 1-clip Goldblatt hypertensive rat (RHR); assay: blood pressure lowering in conscious 2 kidney, 1-clip Goldblatt (renal) hypertensive rats (RHR), AHP3; assay type: in vivo; conditions: 30 mg/kg ip, read-out: Max % decrease in blood pressure, 30 mg/kg ip in RHR
Method: (§1) Thus, for example, compounds of formula I when administered intraperitoneally or orally to 2 kidney, 1-clip Goldblatt (renal) hypertensive rats (See S Sen, et al., "Role of Renin-Angiotensin System in Chronic Renal Hypertensive Rats," Hypertension 1:427-434 (1979) and Clin. Soc. 57:53-62, 1979, "Antihypertensive Effect of Prolonged Blockade of Angiotensin Formation in Benign and Malignant, one-and two-kidney Goldblatt Hypertensive Rats".) at doses in the range of 1-100 mg/kg cause 10-80 mmHg drops in blood pressure. […] Angiotensin binding inhibition activity and blood pressure lowering activity in renal hypertensive rats of the optimally substituted examples of formula I are listed in Table 1. Blood pressure lowering activity in spontaneously hypertensive rats of optimally substituted examples of formula II are listed in Table 2.
(§2) […] EVALUATION (AHP3)
(§3) A Method for the Direct Monitoring of Aortic Blood Pressure and Heart Rate from Conscious Rats
(§4) The continuous monitoring of pulsatile blood pressure (BP) from unrestrained conscious rats surgically equipped with polyethylene cannulas was accomplished by means of a computer assisted data capture scheme (CADCS). The basic elements of the methodology are the cannulation procedure and the CADCS.
(§5) Rats were anesthetized with Telazol (1:1 tiletamine HCl and zolazepam HCl); 20-40 mg/kg IM and the descending aorta exposed via a midline incision. Cannulas fabricated from polyethylene tubing were inserted into the aorta via an undersized puncture hole below the renal arteries. The puncture hole was made by a 23 G disposable needle with a section of the aorta clamped off above and below the puncture site. The cannulas, consisting of a PE100 (0.86 mm ID) body and a PE50 (0.58 mm ID) tip, were attached to a trocar, inserted through the psoas muscle, and passed subcutaneously along the midline of the back and externalized between the ears. The cannulas were anchored to the psoas muscle and between the scalulae (3-0 green braided suture). The midline incision was closed in two steps (muscle first, skin second) using continuous over-and-over sutures (4-0 chronic). Each rat was then given penicillin 30,000 units subcutaneously (Penicillin G Procaine Sterile Suspension).
(§6) The rats were fitted with a harness-springswivel assembly designed to protect the cannula and to provide the rat relative freedom of movement. The harnesses were fabricated from nylon hook and loop tape cemented to a metal plate to which spring wires (18-8 stainless steel), were attached to brass swivels. Each polyethylene cannula was channeled through a spring and connected through a swivel to a pressure transducer (Model P23Gb; Statham Instruments; Hato Rey, Puerto Rico) and an infusion pump (Sage model 234-7; Orion Research, Cambridge, Mass.) by means of PE100 tubing. While on test, each rat received a continuous slow infusion of heparinized saline solution (approximately 0.40 ml or 40 units of heparin per 24 hr period) to prevent clot formation. Additional "flushes" of the cannula with heparinized saline were carried out when the aortic pulse pressure (systolic minus diastolic) was less than 25 mm Hg.
(§7) The pulsatile blood pressure of each of 32 rats was monitored continuously by two signal conditioning units (Gould, Clev., Ohio). The signals from these units were monitored and digital data for mean, systolic, and diastolic blood pressures as well as for heart rate were calculated every 5 min by two in-laboratory computers (Hewlett Packard, Cupertino, Calif.). These in-laboratory computers have the capacity to store 32 days of this 5 min data. Communication with the mainframe research computer (IBM 3083) from the two inlaboratory computers allowed for data analysis and report generation. […]

[2] = target: angiotensin II binding to rat adrenal receptor preparations; assay: inhibition of 125I-angiotensin II binding to rat adrenal receptor preparations
[3] = system: spontaneously hypertensive rat (SHR); assay: blood pressure lowering in conscious spontaneously hypertensive rats (SHR), AHP3; assay type: in vivo; conditions: 30 mg/kg PO, read-out: Max % decrease in blood pressure, 30 mg/kg PO in SHR
Method: as §1, §2, §3, §4, §5, §6, §7

| IC50 [2] [µM] | Compound | change in vivo at 30 mg/kg [1] [%] | change in vivo at 30 mg/kg [3] [%] |
| --- | --- | --- | --- |
| 0.07 | COc1ccc(Cn2cnc3c2CC(C(=O)O)N(C(=O)C(c2ccccc2)c2ccccc2)C3)cc1C (stereo not drawn) [Example 19, 1-(3-Methyl-4-methoxyphenyl)methyl-5-diphenylacetyl-4,5,6,7-tetrahydro-1H-imidazo[4,5-c]-pyridine-6-carboxylic acid] | -14 |  |
|  | COc1ccc(N2C(=O)C3Cc4[nH]cnc4CN3C2=O)cc1 (stereo not drawn) [Example 155, 8a,9-Dihydro-7-(4-methoxyphenyl)-1H-diimidazo[1,5-a:4',5'-d]pyridine-6,8(4H,7H)-dione] |  | -39 |
| 0.69 | O=C(O)C1Cc2c(ncn2Cc2ccccc2O)CN1C(=O)C(c1ccccc1)c1ccccc1 (stereo not drawn) [Example 17, 1-(2-Hydroxyphenyl)methyl-5-diphenylacetyl-4,5,6,7-tetrahydro-1H-imidazo[4,5-c]pyridine-6-carboxylic acid] | -21 |  |
| 0.07 | COc1ccc(Cn2cnc3c2C[C@@H](C(=O)O)N(C(=O)C(c2ccccc2)C2CCCC2)C3)cc1C (stereo partly drawn) [Example 24, (S)-5-(cyclopentylphenylacetyl)-4,5,6,7-tetrahydro-1-[(4-methoxy-3-methylphenyl)methyl]-1H-imidazo-[4,5-c]pyridine-6-carboxylic acid] | -16 |  |
| 6.8 | O=C(O)[C@@H]1Cc2c(ncn2Cc2ccccc2)CN1C(=O)C(c1ccc(Cl)cc1)c1ccc(Cl)cc1 [Example 22, (S)-5-[bis(4-chlorophenyl)acetyl]-4,5,6,7-tetrahydro-1-(phenylmethyl)-1H-imidazo[4,5-c]pyridine-6-carboxylic acid] | -27 |  |
| 2 | COc1ccc(Cn2cnc3c2C[C@@H](C(=O)O)N(C(=O)CC2CCCCC2)C3)cc1C [Example 26, (S)-5-(cyclohexylacetyl)-4,5,6,7-tetrahydro-1-[(4-methoxy-3-methylphenyl)methyl]-1H-imidazo-[4,5-c]-pyridine-6-carboxylic acid] | -18 |  |
|  | CC(C)N1C(=O)[C@@H]2Cc3ncn(C)c3CN2C1=O [Example 129, (S)-8a,9-dihydro-3-methyl-7-(1-methylethyl)-3H-diimidazo-[1,5-a:4',5'-d]pyridine-6,8(4H,7H)-dione] |  | -36 |
|  | CC(C)(C)N1C(=O)C2Cc3[nH]cnc3CN2C1=O (stereo not drawn) [Example 156, 7-(1,1-Dimethylethyl)-8a,9-dihydro-1H-diimidazo[1,5-a:4',5'-d]pyridine-6,8(4H,7H)-dione] |  | -18 |
| 0.19 | O=C(O)C1Cc2c(ncn2Cc2ccc(C(F)(F)F)cc2)CN1C(=O)C(c1ccccc1)c1ccccc1 (stereo not drawn) [Example 21, 1-(4-Trifluoromethylphenyl)methyl-5-diphenylacetyl-4,5,6,7 tetrahydro-1H-imidazo[4,5-c]pyridine-6-carboxylic acid] | -18 |  |
|  | COc1ccc(N2C(=O)C3Cc4c(ncn4Cc4ccc(OC)c(C)c4)CN3C2=S)cc1 (stereo not drawn) [Example 127, 6,7,8a,9-Tetrahydro-1-[(4-methoxy-3-methylphenyl)-methyl]-7-(4-methoxyphenyl)-6-thioxo-1H-diimidazo-[1,5-a:4',5'-d]-pyridine-8(4H)-one] |  | -24 |
|  | CC(C)N1C(=O)C2Cc3nc[nH]c3CN2C1=O (stereo not drawn) [Example 154, 8a,9-Dihydro-7-(1-methylethyl)-3H-diimidazo[1,5-a:4',5'-d]-pyridine-6,8(4H,7H)-dione] |  | -39 |
|  | COc1ccc(N2C(=O)C3Cc4[nH]cnc4CN3C2=O)c(OC)c1 (stereo not drawn) [Example 157, 7-(2,4-Dimethoxyphenyl)-8a,9-dihydro-1H-diimidazo[1,5-a:4',5'-d]pyridine-6,8(4H,7H)-dione] |  | -22 |
|  | CN(C)c1ccc(N2C(=O)C3Cc4[nH]cnc4CN3C2=S)cc1 (stereo not drawn) [Example 160, 7-[4-(Dimethylamino)phenyl]-1,4,6,7,8a,9-hexahydro-6-thioxo-8H-diimidazo[1,5-a:4',5'-d]pyridine-8-one] |  | -34 |
|  | COc1ccc(N2C(=O)C3Cc4[nH]cnc4CN3C2=S)cc1 (stereo not drawn) [Example 159, 1,4,6,7,8a,9-Hexahydro-7-(4-methoxyphenyl)-6-thioxo-8H-diimidazo[1,5-a:4',5'-d]pyridine-8-one] |  | -39 |
|  | O=C1C2Cc3[nH]cnc3CN2C(=S)N1c1ccccc1 (stereo not drawn) [Example 161, 1,4,6,7,8a,9-Hexahydro-7-phenyl-6-thioxo-8H-diimidazo[1,5-a:4',5'-d]pyridine-8-one] |  | -28 |
|  | CC(C)N1C(=O)C2Cc3[nH]cnc3CN2C1=S (stereo not drawn) [Example 162, 1,4,6,7,8a,9-Hexahydro-7-(1-methylethyl)-6-thioxo-8H-diimidazo-(1,5-a:4',5'-d]pyridine-8-one] |  | -39 |
| 2.4 | O=C(O)C1Cc2c(ncn2CCc2ccccc2)CN1C(=O)Cc1ccccc1 (stereo not drawn) [Example 6, 1-(2-Phenylethyl)-5-phenylacetyl-4,5,6,7-tetrahydro-1H-imidazo[4,5-c]pyridine-6-carboxylic acid] | -16 |  |
|  | Cc1cc(Cn2cnc3c2CC(C(=O)O)N(C(=O)C(c2ccccc2)c2ccccc2)C3)ccc1N (stereo not drawn) [Example 13, 1-(4-Amino-3-methylphenyl)methyl-5-diphenylacetyl-4,5,6,7-tetrahydro-1H-imidazo[4,5-c]pyridine-6-carboxylic acid] | -22 |  |
| 0.27 | Cc1cccc(Cn2cnc3c2C[C@@H](C(=O)O)N(C(=O)C(c2ccccc2)c2ccccc2)C3)c1 [Example 75, 1H-Imidazo[4,5-c]pyridine-6-carboxylic acid, 5-(diphenylacetyl)-4,5,6,7-tetrahydro-1-[(3-methylphenyl)methyl]-, (S)-] | -30 |  |
|  | CC(C)N1C(=O)C2Cc3c(ncn3Cc3ccccc3)CN2C1=O (stereo not drawn) [Example 130, 8a,9-Dihydro-7-(1-methylethyl)-1-(phenylmethyl)-1H-diimidazo[1,5-a:4',5'-d]pyridine-6,8(4H,7H)-dione hydrobromide] |  | -21 |
| 8 | O=C(O)C1Cc2c(ncn2Cc2ccccc2)CN1C(=O)C1c2ccccc2-c2ccccc21 (single isomer, unassigned) [Example 29, 1H-Imidazo[4,5-c]pyridine-6-carboxylic acid, 5-[(9H-fluoren-9-yl)carbonyl]-4,5,6,7-tetrahydro-1-(phenylmethyl)-, (+)-] |  |  |
|  | COc1ccc(N2C(=O)C3Cc4c(ncn4Cc4ccccc4)CN3C2=S)cc1 (stereo not drawn) [Example 128, 6,7,8a,9-Tetrahydro-7-(4-methoxyphenyl)-1-(phenylmethyl)-6-thioxo-1H-diimidazo[1,5-a:4',5'-d]pyridine-8(4H)-one] |  | -32 |
|  | COc1ccc(Cn2cnc3c2C[C@@H](C(=O)O)N(C(=O)C(c2ccc(C)cc2)c2ccc(C)cc2)C3)cc1C [Example 25, (S)-[bis(4-methylphenyl)acetyl]-4,5,6,7-tetrahydro-1-[(4-methoxy-3-methylphenyl)methyl]-1H-imidazo[4,5-c]-pyridine-6-carboxylic acid] | -12 |  |
|  | COc1ccc(N2C(=O)C3Cc4c(ncn4Cc4ccc([N+](=O)[O-])c(C)c4)CN3C2=O)cc1 (stereo not drawn) [Example 273, 1H-Diimidazo[1,5-c:4',5'-d]pyridine-6,8(4H,7H)-dione, 8a,9-dihydro-7-(4-methoxyphenyl)-1-[(3-methyl-4nitrophenyl)methyl], monohydrochloride] |  | -14 |
|  | COc1ccc(N2C(=O)C3Cc4c(ncn4Cc4ccccc4)CN3C2=O)cc1 (stereo not drawn) [Example 133, 1H-Diimidazo[1,5-a:4',5'-d]pyridine-6,8(4H,7H)-dione, 8a,9-dihydro-7-(4-methoxyphenyl)-1-(phenylmethyl)-, monohydrochloride] |  | -29 |

— patent publication US4812462A, “4,5,6,7-tetrahydro-1H-imidazo[4,5-c]pyridine-6-carboxylic acid analogs having antihypertensive activity” (Warner-Lambert Company, priority 1986, dated 1989)
